Data on ten compounds can be found in US9511016B2, “Topical composition for treating pain” (EpicentRx, Inc., priority 2007, dated 2016).

In one assay the test system is Human Patient with Pain. Description: Topical treatment of human patients with pain: pain level (x/10), mobility, duration. The class given is in vivo. The note with it: for Mobility / stiffness after application: patient and treated site of the example or table row cited; for Observation: mobility: Table 5 patient 10, neck pain 5/10.
A further assay concerns Human Patient. Kind of assay: Systemic effects in human patients after application: breathing, peak expiratory flow, appetite, alertness. The class given is in vivo. The note with it: patient of the example or table row cited.
The mark [1] stands for this setting: Ex.27, clonidine then nitropaste.
[2] abbreviates: Table 7: compression fracture of vertebra.
Where [3] appears, read: Table 7: neck pain and stiffness.
[4] abbreviates: Table 7: patellofemoral syndrome.
The mark [5] stands for this setting: Table 7: sacroiliac strain, bilateral sacroilitis.
Setting [6] is: Table 7: sacroiliac strain, bilateral sacroilitis, listed as Albuterol inhaler.
Setting [7] is: Table 7: back, leg, joint, hip, toe, knee pain.

Where “and” joins values, the source holds several entries; their conditions need not be identical. Identical values can stand only once. A value given as a limit tells only on which side of the number the result lay.

As for `CC(O)CO` (centres unmarked) [Propylene glycol], the “Observation (pain)” value in the assay with Human Patient with Pain (Table 5) is on record as “No effect”.

As to `Clc1cccc(Cl)c1N=C1NCCN1` [Clonidine], the Pain level result in the assay with Human Patient with Pain (Ex.11 right arm neuroma with phantom limb, initial 4/10, in series) was “pain completely disappeared”; with Human Patient with Pain (Ex.17 left rotator cuff impingement and bursitis, initial printed 5110), “Pain disappeared”; in the assay on Human Patient with Pain (Ex.20 ischial gluteal bursitis, initial 9/10, clonidine then nitropaste), 5/10; in the assay with Human Patient with Pain (Ex.20 right knee osteoarthritis, from 9/10, clonidine then nitropaste) it was 8/10; in the assay with Human Patient with Pain (Ex.20 right wrist carpal tunnel, initial 9/10, nitropaste then clonidine paste), 3/10; with Human Patient with Pain (Ex.20 trochanteric bursitis, initial 9/10, clonidine then nitropaste) it was 5/10. In addition, the Pain level with Human Patient with Pain (Ex.21 bilateral sacroiliac strain, initial 9/10, in series) is reported as 5/10; with Human Patient with Pain (Ex.22 bilateral rotator cuff tear, initial printed 8.5410), “no effect”; in the assay with Human Patient with Pain (Ex.23 thoracalgia, initial 8/10) it was “no effect”; with Human Patient with Pain (Ex.24 left patellofemoral syndrome, initial 7/10, in series), 3/10; in the assay on Human Patient with Pain (Ex.25 left trochanteric bursitis, initial 7/10), “disappeared”; with Human Patient with Pain (Ex.25 right thumb osteoarthritis, initial 2/10, in series) it was “stayed the same”. Also, the Pain level in the assay on Human Patient with Pain (Ex.26 L3 vertebral compression fracture, initial 6/10, in series) is 4/10; in the assay on Human Patient with Pain (Ex.27 neck stiffness and pain, radiculopathy, initial about 6/10), “pain disappeared”; in the assay on Human Patient with Pain (Ex.28 left knee, initial 6/10, nitrobid then clonidine), “pain also disappeared”; in the assay on Human Patient with Pain (Ex.28 right knee osteoarthritis/patellofemoral syndrome, initial 6/10, clonidine then nitrobid), 3/10; in the assay with Human Patient with Pain (Ex.30 diabetic lower extremity neuropathy, initial 7/10, in series), 5/10. The “Head rotation to left” value with Human Patient with Pain (setting [1]) turned out to be 70 degrees. For the same compound, the “Head rotation to right” value with Human Patient with Pain (setting [1]) was determined as 75 degrees. Besides, the “Pain Level, CD” value with Human Patient with Pain (Table 1 part II: after clonidine paste (first step), listed as CD) was 3/10 and 7/10 and 6/10. The “% Change in Pain level” value came out at 33% in the assay on Human Patient with Pain (setting [2]); 100% in the assay with Human Patient with Pain (setting [3]); 40% with Human Patient with Pain (setting [4]); 100% in the assay on Human Patient with Pain (Table 7: rotator cuff tendinopathy, tear, shoulder pain, listed as Clonidine paste). Further, the “EFFECT ON PAIN LEVEL/% change” value was “From 6/10 to 4/10, No” with Human Patient with Pain (setting [2]); 0/10 with Human Patient with Pain (Table 7: migraine, tension headache, cluster headache, headache); “From 6/10 to 0/10” with Human Patient with Pain (setting [3]); “No change and From 6/10 to 3/10 and 6/10 to 0/10” in the assay with Human Patient with Pain (Table 7: osteoarthritis); “From 5/10 to 3/10” in the assay on Human Patient with Pain (setting [4]); “From 3/10 to 0/10” in the assay on Human Patient with Pain (Table 7: rotator cuff tendinopathy, rotator cuff tear, shoulder pain, listed as Clonidine paste). For the same compound, the “EFFECT ON PAIN LEVEL/% change” value with Human Patient with Pain (Table 7: trochanteric bursitis) is listed as “From 7/10 to 0/10”. Moreover, the “% Change in Pain level, total over successive treatments (marked *)” value with Human Patient with Pain (Table 7: migraine and tension headache) is “*100%”; in the assay on Human Patient with Pain (Table 7: osteoarthritis), “*100%;”; in the assay on Human Patient with Pain (setting [4]) it was 57%. Further, the “Mobility / stiffness after application” value was “improved flexibility” with Human Patient with Pain; “improved mobility and range of motion” in the assay on Human Patient with Pain (listed as Clonidine paste). Moreover, the “Duration of pain relief” value in the assay with Human Patient with Pain (patient of the example cited) came to 6 h. Moreover, in the assay with Human Patient with Pain (patient of the example cited), the “Persistence of pain relief at follow-up” value is on record as “A day later patient reported that their knee pain was still reduced”. Further, the “Time to decrease of pain” value in the assay with Human Patient with Pain (patient of the example cited) is 5 min; with Human Patient with Pain (patient of the example cited, listed as clonidine) it was at most 10 min.

On to `CC(C)(C)NCC(O)c1ccc(O)c(CO)c1` (centres unmarked) [albuterol inhaler, albuterol], for which the Pain level is 6/10 in the assay with Human Patient with Pain (Ex.34 V(a) left heel (no gel), initial 8/10, inhalers in series); 3/10 with Human Patient with Pain (Ex.34 V(a) left heel, albuterol inhaler given again (from 5/10)); 4/10 in the assay with Human Patient with Pain (Ex.34 V(a) right heel (PLO gel applied here), initial 8/10, then inhalers in series); 2/10 in the assay on Human Patient with Pain (Ex.34 V(a) right heel, albuterol inhaler given again (from 3/10)); “no change in their back pain” with Human Patient with Pain (Ex.34 V(c) lower back pain over coccyx, initial 8/10, in series); 2/10 in the assay with Human Patient with Pain (Ex.34 V(c) neck pain and stiffness, initial 5/10, in series). Besides, the Pain level in the assay on Human Patient with Pain (Ex.34 V(e) sacroiliac strain, initial 8.5/10, in series) was 4/10; in the assay on Human Patient with Pain (Ex.34 V(f) midback pain, initial 7/10), “without any change”; in the assay with Human Patient with Pain (Ex.34 V(h) possible lower lumbar compression fracture, initial 5/10, in series), 6/10. For the same compound, the “EFFECT ON PAIN LEVEL/% change” value is given as 2/10 in the assay with Human Patient with Pain (setting [3]) and “From 5/10 to 4/10” in the assay with Human Patient with Pain (setting [6]). For the same compound, the “% Change in Pain level, total over successive treatments (marked *)” value with Human Patient with Pain (setting [5]) was determined as 53% to. Further, the “% Change in Pain level” value in the assay with Human Patient with Pain (setting [6]) stood at 20%; in the assay with Human Patient with Pain (Table 7: sacroiliac strain, bilateral sacroilitis, listed as albuterol), 0%.

Consider `OCC(O)CO` [GP, Glycerin], for which the “Observation (pain)” value in the assay with Human Patient with Pain (Table 4, components marked +, complaint and initial level in the same row, plus anhydrous lanolin) is “Pain disappeared”; with Human Patient with Pain (Table 5), 10 No effect on knee; in the assay with Human Patient with Pain (Table 5, listed as Glycerin pure), 1/10. Further, the “% Change in Pain level” value in the assay on Human Patient with Pain (setting [7]) worked out at 0%; in the assay with Human Patient with Pain (Table 7: osteoarthritis), 16.7%; in the assay on Human Patient with Pain (Table 7: tarsal tunnel, carpal tunnel syndrome, wrist pain) it was 0%. Moreover, the “EFFECT ON PAIN LEVEL/% change” value with Human Patient with Pain (setting [7]) was “No Change, then from 8/10”.

For Tween 80, the “Observation: mobility” value with Human Patient with Pain is reported as “More mobility”. For the same compound, the “Systemic effects noted (alertness, appetite, breathing, congestion, sweating, secretions)” value with Human Patient is on record as “improvement in breathing”.

For `CC(C)NCC(O)COc1ccc(CC(N)=O)cc1` (centres unmarked) [Atenolol], the Pain level result is on record as “pain completely disappeared” in the assay with Human Patient with Pain (Ex.10 thoracalgia, left side, initial 5/10, in series); 2/10 in the assay with Human Patient with Pain (Ex.10 thoracalgia, right side, initial 5/10, in series); “no effect” with Human Patient with Pain (Ex.4 hammer toes, halux valgus and rigiditus, initial 7/10, in series); 6/10 in the assay on Human Patient with Pain (Ex.5 hip, trochanteric bursitis, initial 8/10, in series); 5/10 with Human Patient with Pain (Ex.5 knee osteoarthritis, initial 8/10); “no change” with Human Patient with Pain (Ex.8 hip, trochanteric bursitis, initial 8/10, in series). Moreover, the “% Change in Pain level” value was found to be 37.5% in the assay with Human Patient with Pain (Table 7: osteoarthritis), 0% in the assay on Human Patient with Pain (setting [5]) and 25% in the assay with Human Patient with Pain (Table 7: trochanteric bursitis). Further, the results for the “EFFECT ON PAIN LEVEL/% change” value in the assay on Human Patient with Pain (Table 7: osteoarthritis), in the assay with Human Patient with Pain (setting [5]) and in the assay on Human Patient with Pain (Table 7: trochanteric bursitis) were “From 8/10 to 5/10”, “No change” and “From 8/10 to 6/10”, respectively.

In the case of Tween 20, the “Observation: mobility” value in the assay on Human Patient with Pain is “Increased mobility”.

As to `COc1cc(CNC(=O)CCCC/C=C/C(C)C)ccc1O` [capsaicin], in the assay with Human Patient with Pain (across patients), the “Overall analgesic effect (general statement)” value was “did not have much of an effect except in a few patients”.

Regarding Triton x100, the “Observation: mobility” value with Human Patient with Pain is given as “Slight increase in mobility”.

In the case of `CCCCCCCCCCCCOS(=O)(=O)[O-].[Na+]` [SDS 20%, Sodium dodecyl sulfate], the “Systemic effects noted (alertness, appetite, breathing, congestion, sweating, secretions)” value in the assay with Human Patient (listed as SDS, sulfate) is on record as “improvement in breathing”.
